Assay results published in paper PMC11341359, “Assessing the immunogenicity risk of salmon calcitonin peptide impurities using in silico and in vitro methods” (Frontiers in Pharmacology, 2024).
Peptide text beside a SMILES is read from it.

Experiments:
HLA DRB1*0901 = HLA DRB1*0901 (Homo sapiens, UniProt P01903+P01911, A100R/A103E/D57H/D86V/F55Y/F60I/F76Y/I96F/K127E/L162R/M171V/P40D/Q125H/Q99R/R33Q/R42F/S133A/S66N/T210M/V115G/W38K/Y107V/Y59G/Y89S); assay: Class II HLA competition binding assay; conditions: short assay peptides (Cys7 replaced with Ser); competition with biotinylated allele-specific peptide, soluble HLA DR, overnight, time-resolved fluorescence, triplicate, seven concentrations
Description: (§1) The class II HLA binding assays performed for these studies measure the binding affinity of a target peptide to HLA DRB1*0101, *0301, *0401, *0701, *0901, *1101, *1301, and *1501 in a standardized competition assay. This assay was originally described by [Steere et al. (2006)] and adapted by EpiVax. Previous publications have described the assay in detail ([McMurry et al., 2007]; [Ardito et al., 2011]). Briefly, unlabeled test peptides are incubated overnight to equilibrium with a soluble HLA DR molecule (Benaroya Research Institute, Seattle, Washington) and a biotinylated, allele-specific competitor peptide. The binding reaction is then neutralized, and peptide–HLA complexes are transferred to a 96-well plate coated with the pan-HLA DR antibody, clone L243 (BioLegend), and incubated overnight. The following day, Europium-labeled streptavidin (PerkinElmer, Waltham, MA) is added to identify the peptide–HLA complexes. An indirect measure of binding is determined by time-resolved fluorescence. Each peptide–HLA binding reaction is evaluated in triplicate over a range of seven concentrations. The percent inhibition values at seven distinct concentrations are used to calculate the IC50 value, defined as the concentration at which the test peptide inhibits 50% of the labeled competitor peptide.
(§2) Peptides that bind to the HLA at an IC50 value of 100 nM or less are considered very high-affinity binders. Peptides that bind at IC50 values ranging from 100 nM to 1,000 nM are considered high-affinity binders. Peptides that bind at IC50 values ranging from 1,000 nM to 10,000 nM are considered moderate-affinity binders. Peptides that bind at IC50 values ranging from 10,000 nM to 100,000 nM are considered low-affinity binders, and those with IC50 values ranging from 100,000 nM to 1,000,000 nM are considered negligible-affinity binders. […] We note that these concentrations are specific for the in vitro HLA-binding assay and are used to compare the relative binding affinities of the impurity sequences to the API and independent from the peptide concentrations described for the in vitro T-cell assays described below.

HLA DRB1*0101 = molecular target: T1, HLA DRB1*0101 (Homo sapiens, UniProt P01903+P01911, A100R/D57E/F55L/F60I/F76Y/I96L/L162R/M171V/P40L/Q125E/R42F/V115G/Y59C); assay: Class II HLA competition binding assay; conditions: short assay peptides (Cys7 replaced with Ser); competition with biotinylated allele-specific peptide, soluble HLA DR, overnight, time-resolved fluorescence, triplicate, seven concentrations; unit inferred
T1 construct: incubated overnight to equilibrium with a soluble HLA DR molecule; purchased Benaroya Research Institute, Seattle, Washington
Description: as §1, §2

HLA DRB1*1501 = molecular target: T2, HLA DRB1*1501 (Homo sapiens, UniProt P01903+P01911); assay: Class II HLA competition binding assay; conditions: short assay peptides (Cys7 replaced with Ser); competition with biotinylated allele-specific peptide, soluble HLA DR, overnight, time-resolved fluorescence, triplicate, seven concentrations; unit inferred
T2 construct: incubated overnight to equilibrium with a soluble HLA DR molecule; purchased Benaroya Research Institute, Seattle, Washington
Description: as §1, §2

HLA DRB1*0701 = HLA DRB1*0701 (Homo sapiens, UniProt P01903+P01911, A100R/A102G/A103Q/D57E/D86V/E43K/F76Y/K127E/L162R/M171V/P40G/Q125H/Q99D/R33Q/R42Y/R54Q/S133A/S66F/T210M/V115G/Y107V/Y59L/Y89S); assay: Class II HLA competition binding assay; conditions: short assay peptides (Cys7 replaced with Ser); competition with biotinylated allele-specific peptide, soluble HLA DR, overnight, time-resolved fluorescence, triplicate, seven concentrations
Description: as §1, §2

HLA DRB1*0401 = molecular target: T3, HLA DRB1*0401 (Homo sapiens, UniProt P01903+P01911, A100K/A169T/F76Y/I96L/K127E/L162R/M171V/N62H/P40V/Q125Y/R42H/S133A/S149N/S66Y/V115G/V209L/W38E); assay: Class II HLA competition binding assay; conditions: short assay peptides (Cys7 replaced with Ser); competition with biotinylated allele-specific peptide, soluble HLA DR, overnight, time-resolved fluorescence, triplicate, seven concentrations
T3 construct: incubated overnight to equilibrium with a soluble HLA DR molecule; purchased Benaroya Research Institute, Seattle, Washington
Description: as §1, §2

HLA DRB1*1101 = molecular target: T4, HLA DRB1*1101 (Homo sapiens, UniProt P01903+P01911, A100R/A169T/A87E/I96F/K41T/L162R/M171V/P40S/Q125H/Q178H/Q39Y/Q99D/R42S/S66Y/T262R/V115G/W38E); assay: Class II HLA competition binding assay; conditions: short assay peptides (Cys7 replaced with Ser), competition with biotinylated allele-specific peptide, soluble HLA DR, overnight, time-resolved fluorescence, triplicate, seven concentrations; for IC50: unit inferred
T4 construct: incubated overnight to equilibrium with a soluble HLA DR molecule; purchased Benaroya Research Institute, Seattle, Washington
Description: as §1, §2

HLA DRB1*1301 = molecular target: T5, HLA DRB1*1301 (Homo sapiens, UniProt P01903+P01911, A100E/A169T/K41T/L162R/M171V/P40S/Q125H/Q178H/Q39Y/Q99D/R42S/S66N/T262R/W38E/Y61H); assay: Class II HLA competition binding assay; conditions: short assay peptides (Cys7 replaced with Ser), competition with biotinylated allele-specific peptide, soluble HLA DR, overnight, time-resolved fluorescence, triplicate, seven concentrations; for IC50: unit inferred
T5 construct: incubated overnight to equilibrium with a soluble HLA DR molecule; purchased Benaroya Research Institute, Seattle, Washington
Description: as §1, §2

HLA DRB1*0301 = molecular target: T6, HLA DRB1*0301 (Homo sapiens, UniProt P01903+P01911, A100K/A102G/A103R/A169T/F55Y/I96L/K41T/L162R/M171V/P40S/Q125H/Q178H/Q39Y/R42S/S66N/T106N/T262R/W38E/Y61H); assay: Class II HLA competition binding assay; conditions: short assay peptides (Cys7 replaced with Ser), competition with biotinylated allele-specific peptide, soluble HLA DR, overnight, time-resolved fluorescence, triplicate, seven concentrations; for IC50: unit inferred
T6 construct: incubated overnight to equilibrium with a soluble HLA DR molecule; purchased Benaroya Research Institute, Seattle, Washington
Description: as §1, §2

[1] = greater than human calcitonin; ref Epand et al., 1983; Lee et al., 2011; Andreassen et al., 2014; cited from earlier work
Text: Despite the risk of immunogenicity, SCT is preferred for therapeutic use over human calcitonin due to its 50-fold greater potency in vivo. Increased potency is attributed to the ability of the peptide to adopt an α-helical structure and bind to the human calcitonin receptor with a greater, and nearly irreversible, affinity relative to the human homolog ([Epand et al., 1983]; [Lee et al., 2011]; [Andreassen et al., 2014]).

[2] = of those who develop ADAs; ref LEVY et al., 1988; Grauer et al., 1995; cited from earlier work
Text: In this case study, we describe an exercise to assess the immunogenicity risk of generic peptide impurities that were identified in salmon calcitonin (SCT). SCT is a peptide drug currently under development for the generic market by several manufacturers. Salmon calcitonin is a 32-amino acid peptide drug approved in the United States for the treatment of postmenopausal osteoporosis, Paget’s disease, and hypercalcemia. Salmon calcitonin shares only 50% amino acid sequence homology with human calcitonin (Figure 1), and despite its therapeutic benefits, in clinical trials, 40%–70% of patients tre ...

human donor PBMCs = assay: In vitro immunogenicity protocol (IVIP) naïve T-cell assay, IFNγ FluoroSpot; format: cell-based; conditions: individual full-length peptides at 20 μg/mL, 14 days, then 48 h IFNγ FluoroSpot; 16 donors; positive: SFC > 50 per 10^6, SI ≥ 2, p < 0.05 vs medium
Description: To improve the sensitivity of the T-cell assays, fresh (not frozen) blood samples were obtained from human blood donors for the T-cell assays (internal observations). Specifically, PBMCs were isolated from leukocyte reduction filters obtained from the Rhode Island Blood Center (RIBC) in Providence, RI. To confirm the sufficient breadth of HLA coverage in the donor cohort, high-resolution (4-digit) class II HLA haplotyping of donors was performed at the Transplant Immunology Laboratory at Hartford Hospital in Hartford, CT, using the sequence-specific oligonucleotide method (SSP-PCR). […] supertype alleles were expressed by the donor PBMCs used in the assays reported here (HLA DRB1*0301, *0401, *0701, *1101, *1301, and *1501). The HLA identified for the cohort of subjects used in this study is representative of 81.81% of the HLA alleles expressed by the global population. Forty percent of the donors were female and 60% of the donors were male, and their ages ranged from 17 to 83 years. Donor cohort demographic information and HLA types for each donor are provided in Supplementary Figure S1. To measure the naïve T-cell response to salmon calcitonin and impurity peptides, cells were plated at a density of 2.5 × 10^5 cells per well in 96-well U-bottom cell plates in RPMI 1640 cell culture medium supplemented with IL-2 (10 ng/mL) and IL-7 (20 ng/mL) (Gibco). The cells were incubated with […]®, or a synthetic salmon calcitonin peptide, or individual peptide impurities, at a concentration of 20 μg/mL for 14 days at 37°C/5% CO2, with medium exchanges that include cytokine support (IL-2 and IL-7) on days 4, 7, and 11. A concentration of 20 μg/mL (5.8 μM) was the dose selected for the SCT API and the four selected impurities, following a dose-ranging study performed with […]® to determine the maximum dose at which a T-cell response could be observed with no observed toxicity to the cells. The dose-ranging study was performed following the same protocol as described above. The following control antigens were used in the T-cell assays for each of the PBMC samples: positive controls, keyhole limpet hemocyanin (KLH; Thermo Fisher), and the antigenic peptide pool CEFT (ImmunoSpot). In addition, human serum albumin (HSA; Sigma-Aldrich) was used as a negative control antigen, and phytohemagglutinin (PHA; Thermo Fisher), a T-cell mitogen, was used to confirm T-cell functionality. […] Responses were considered positive if (1) the number of spots was at least twice the background (stimulation index [SI] ≥ 2); (2) there were greater than 50 spot-forming cells (SFCs) per 1.0 × 10^6 PBMCs; and (3) responses were statistically different from the media (Student's t-test). Each of the test articles (SCT API, RLD, or impurity peptide) and each of the positive and negative controls were evaluated in nine replicate wells containing donor PBMCs. Following the 14-day incubation, cells in the nine replicate wells were collected, pooled by the treatment condition, and re-plated in triplicate on a precoated anti-human IFNγ FluoroSpot plate (Mabtech) at a concentration of 1.0 × 10^5 cells per well in the presence of an appropriate test article or control reagent in supplemented RPMI 1640 culture medium. The FluoroSpot plates were incubated for 48 h at 37°C/5% CO2. After 48 h, FluoroSpot plates were developed according to the manufacturer's directions. Spots were counted on an iSpot Spectrum FluoroSpot reading system (AID, Strassberg, Germany) using software 7.0, build 14790. Fluorophore-specific spot parameters were defined using the spot size, spot intensity, and spot gradient. A spot separation algorithm was applied for optimal spot detection. Analysis and counting of spots were performed by unbiased experts at ZellNet Consulting, Inc. (Fort Lee, NJ).

Molecule | IC50 (HLA DRB1*0901) | IC50 (HLA DRB1*0101) | IC50 (HLA DRB1*1501) | IC50 (HLA DRB1*0701) | IC50 (HLA DRB1*0401) | IC50 (HLA DRB1*1101) | IC50 (HLA DRB1*1301) | IC50 (HLA DRB1*0301) | IC50, HLA DRB1*0901 (HLA DRB1*0901) | IC50, HLA DRB1*0701 (HLA DRB1*0701) | IC50, HLA DRB1*0401 (HLA DRB1*0401) | IC50, HLA DRB1*1101 (HLA DRB1*1101; unit not given) | IC50, HLA DRB1*1301 (HLA DRB1*1301; unit not given) | IC50, HLA DRB1*0301 (HLA DRB1*0301; unit not given) | potency in vivo relative to human calcitonin [1] | patients with ADAs who develop neutralizing anti-SCT antibodies (NADAs) [2] | Percentage of Responding Donors (human donor PBMCs) | Responding Donors (human donor PBMCs)
CC(C)C[C@H](NC(=O)[C@H](CCC(=O)O)NC(=O)[C@H](CCC(N)=O)NC(=O)[C@@H](N)CO)C(=O)N[C@@H](Cc1c[nH]cn1)C(=O)N[C@@H](CCCCN)C(=O)N[C@@H](CC(C)C)C(=O)N[C@@H](CCC(N)=O)C(=O)N[C@H](C(=O)N[C@@H](Cc1ccc(O)cc1)C(=O)N1CCC[C@H]1C(=O)N[C@@H](CCCNC(=N)N)C(=O)N[C@H](C(=O)N[C@@H](CC(N)=O)C(=O)N[C@H](C(=O)O)[C@@H](C)O)[C@@H](C)O)[C@@H](C)O [API SCT(13-27)] (H-SQELHKLQTYPRTNT-OH) | > 1000 µM | 3.35 µM | 2.29 µM | > 1000 µM | > 1000 µM | 161 µM | 8.72 µM | 66.4 µM |  |  |  |  |  |  |  |  |  | 
CC(=O)NCCCC[C@H](NC(=O)CNC(=O)[C@H](CC(C)C)NC(=O)[C@@H](NC(=O)[C@H](CO)NC(=O)[C@@H](NC(=O)[C@@H](N)CO)[C@@H](C)O)C(C)C)C(=O)N[C@@H](CC(C)C)C(=O)N[C@@H](CO)C(=O)N[C@@H](CCC(N)=O)C(=O)N[C@@H](CCC(=O)O)C(=O)N[C@@H](CC(C)C)C(=O)N[C@@H](Cc1c[nH]cn1)C(=O)N[C@@H](CCCCN)C(=O)N[C@@H](CC(C)C)C(=O)O [LYS-AC11_SCT(5-19)] (H-STSVLGK(Ac)LSQELHKL-OH) | > 1000 µM | 12.3 µM | 12.8 µM | > 1000 µM | > 1000 µM | > 1000 µM | > 1000 µM | > 1000 µM | non-binder | non-binder | non-binder | loss of binding | non-binder | non-binder |  |  |  | 
CSNLSTCVLGKLSQELHKLQTYPRTNTGSGTP (disulfide) [SCT API, salmon calcitonin, 32-amino acid peptide drug, disulfide Cys1-Cys7, C-terminus amidated] |  |  |  |  |  |  |  |  |  |  |  |  |  |  | 50 fold | more than 60% | 44% | 7
